Reference: patent US20260028326A1, “COMPOUND BASED ON ISOINDOLINE-SUBSTITUTED GLUTARIMIDE BACKBONE AND USE THEREOF” (GLUETACS THERAPEUTICS (SHANGHAI) CO., LTD., priority 2022, published 2026)

target: human Cereblon WT GST-tagged protein (Homo sapiens (Human), UniProt Q96SW2); experiment: CRBN-binding affinity, HTRF (CEREBLON BINDING kit)
Protocol: The CEREBLON BINDING kits (specification: 10,000 tests; product number: Catalog #64BDCRBNPEH; CISBIO company) was used to determine the CRBN binding ability of the compounds to be tested through a HTRF method (homogeneous time-resolved fluorescence). The specific methods are as follows: • 1. […] Then, 2.5 μL of human Cereblon WT GST-tagged protein solution was added to each well. Finally, 5 μL of the thoroughly mixed Thalidomide-Re reagent and GST Eu antibody working solution were added to each of the aforementioned wells. […] The blank control wells were sequentially added with 2.5 μL of diluent #9 (1×) solution, 2.5 μL of PROTAC binding buffer, and 5 μL of thoroughly mixed Thalidomide-Re reagent and GST Eu antibody working solution. • 4.
The corresponding CRBN binding inhibition rate was calculated using the following method: […]

Sequence of human Cereblon WT GST-tagged protein (Q96SW2 whole entry): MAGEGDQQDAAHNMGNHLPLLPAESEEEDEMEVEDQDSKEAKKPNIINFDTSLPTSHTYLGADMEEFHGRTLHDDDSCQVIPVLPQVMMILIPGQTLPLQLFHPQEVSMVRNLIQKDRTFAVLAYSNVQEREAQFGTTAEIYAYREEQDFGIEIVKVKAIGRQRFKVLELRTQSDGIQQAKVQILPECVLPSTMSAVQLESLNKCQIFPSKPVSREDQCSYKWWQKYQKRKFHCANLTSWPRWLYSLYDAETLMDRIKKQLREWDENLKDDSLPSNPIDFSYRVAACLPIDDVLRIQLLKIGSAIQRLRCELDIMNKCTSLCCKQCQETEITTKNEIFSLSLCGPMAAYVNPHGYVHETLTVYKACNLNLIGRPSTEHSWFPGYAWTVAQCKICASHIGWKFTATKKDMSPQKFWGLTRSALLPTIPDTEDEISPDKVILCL

IC50 [nM] | Structure (SMILES)
880 | O=C1CCC(N2Cc3cc(CN4CCN(Cc5ccccc5-c5ccc(Cl)cc5)CC4)cc(F)c3C2=O)C(=O)N1 (stereo not shown) [GT-03696, 3-(5-((4-((4′-chloro-[1,1′-biphenyl]-2-yl)methyl)piperazin-1-yl)methyl)-7-fluoro-1-oxoisoindolin-2-yl)piperidine-2,6-dione]
1140 | CC1(C)CC(c2ccc(Cl)cc2)=C(CN2CCN(C(=O)c3ccc4c(c3)CN(C3CCC(=O)NC3=O)C4=O)CC2)CO1 (stereo not shown) [GT-05673, 3-(5-(4-((4-(4-chlorophenyl)-6,6-dimethyl-5,6-dihydro-2H-pyran-3-yl)methyl)piperazine-1-carbonyl)-1-oxoisoindolin-2-yl)piperidine-2,6-dione]
1800 | O=C1CCC(N2Cc3c(CN4CCN(C(=O)c5ccccc5-c5ccc(Cl)cc5)CC4)cccc3C2=O)C(=O)N1 (stereo not shown) [GT-05701, 3-(4-((4-(4′-chloro-[1,1′-biphenyl]-2-carbonyl)piperazin-1-yl)methyl)-1-oxoisoindolin-2-yl)piperidine-2,6-dione]
760 | CC1(C)CCC(CN2CC(Cc3ccc4c(c3)CN(C3CCC(=O)NC3=O)C4=O)C2)=C(c2ccc(F)cc2)C1 (stereo not shown) [GT-05493, 3-(5-((1-((4′-fluoro-5,5-dimethyl-3,4,5,6-tetrahydro-[1,1′-biphenyl]-2-yl)methyl)azetidin-3-yl)methyl)-1-oxoisoindolin-2-yl)piperidine-2,6-dione]
810 | CC1(C)CCC(CN2CCCN(C(=O)c3ccc4c(c3)CN(C3CCC(=O)NC3=O)C4=O)CC2)=C(c2ccc(F)cc2)C1 (stereo not shown) [GT-05505, 3-(5-(4-((4′-fluoro-5,5-dimethyl-3,4,5,6-tetrahydro-[1,1′-biphenyl]-2-yl)methyl)-1,4-diazepane-1-carbonyl)-1-oxoisoindolin-2-yl)piperidine-2,6-dione]
540 | CC1(C)CCC(CN2CCC3(CC2)CN(Cc2ccc4c(c2)CN(C2CCC(=O)NC2=O)C4=O)C3)=C(c2ccc(F)cc2)C1 (stereo not shown) [GT-05506, 3-(5-((7-((4′-fluoro-5,5-dimethyl-3,4,5,6-tetrahydro-[1,1′-biphenyl]-2-yl)methyl)-2,7-diazaspiro[3.5]nonan-2-yl)methyl)-1-oxoisoindolin-2-yl)piperidine-2,6-dione]
1240 | CC1(C)CCC(CN2CCC3(CC2)CN(C(=O)c2ccc4c(c2)CN(C2CCC(=O)NC2=O)C4=O)C3)=C(c2ccc(F)cc2)C1 (stereo not shown) [GT-05507, 3-(5-(7-((4′-fluoro-5,5-dimethyl-3,4,5,6-tetrahydro-[1,1′-biphenyl]-2-yl)methyl)-2,7-diazaspiro[3.5]nonane-2-carbonyl)-1-oxoisoindolin-2-yl)piperidine-2,6-dione]
1080 | CC1(C)CCC(CN2CC(Cc3ccc4c(c3)CN(C3CCC(=O)NC3=O)C4=O)C2)=C(c2ccc(Cl)cc2)C1 (stereo not shown) [GT-05428, 3-(5-((1-((4′-chloro-5,5-dimethyl-3,4,5,6-tetrahydro-[1,1′-biphenyl]-2-yl)methyl)azetidin-3-yl)methyl)-1-oxoisoindolin-2-yl)piperidine-2,6-dione]
450 | O=C1CCC(N2Cc3cc(CN4CC5CCC4CN5C(=O)c4ccccc4-c4ccc(Cl)cc4)ccc3C2=O)C(=O)N1 (stereo not shown) [GT-05543, 3-(5-((5-(4′-chloro-[1,1′-biphenyl]-2-carbonyl)-2,5-diazabicyclo[2.2.2]octan-2-yl)methyl)-1-oxoisoindolin-2-yl)piperidine-2,6-dione]
1200 | CC1(C)CCC(CN2C3CC2CN(Cc2cc4c(cc2F)C(=O)N(C2CCC(=O)NC2=O)C4)C3)=C(c2ccc(Cl)cc2)C1 (stereo not shown) [GT-05530, 3-(5-((6-((4′-chloro-5,5-dimethyl-3,4,5,6-tetrahydro-[1,1′-biphenyl]-2-yl)methyl)-3,6-diazabicyclo[3.1.1]heptan-3-yl)methyl)-6-fluoro-1-oxoisoindolin-2-yl)piperidine-2,6-dione]
1080 | O=C1CCC(N2Cc3c(CN4CCN(C(=O)C5=C(c6ccc(F)cc6)CCCC5)CC4)cccc3C2=O)C(=O)N1 (stereo not shown) [GT-05471, 3-(4-((4-(4′-fluoro-3,4,5,6-tetrahydro-[1,1′-biphenyl]-2-carbonyl)piperazin-1-yl)methyl)-1-oxoisoindolin-2-yl)piperidine-2,6-dione]
1090 | CC1(C)CCC(C(=O)N2CC3CCC2CN3C(=O)c2ccc3c(c2)CN(C2CCC(=O)NC2=O)C3=O)=C(c2ccc(Cl)cc2)C1 (stereo not shown) [GT-05663, 3-(5-(5-(4′-chloro-5,5-dimethyl-3,4,5,6-tetrahydro-[1,1′-biphenyl]-2-carbonyl)-2,5-diazabicyclo[2.2.2]octane-2-carbonyl)-1-oxoisoindolin-2-yl)piperidine-2,6-dione]
1760 | CC1(C)CCC(CN2CCC(Nc3ccc4c(c3)CN(C3CCC(=O)NC3=O)C4=O)CC2)=C(c2ccc(Cl)cc2)C1 (stereo not shown) [GT-05782, 3-(5-((1-((4′-chloro-5,5-dimethyl-3,4,5,6-tetrahydro-[1,1′-biphenyl]-2-yl)methyl)piperidin-4-yl)amino)-1-oxoisoindolin-2-yl)piperidine-2,6-dione]
170 | O=C1CCC(N2Cc3cc(CC4CN(Cc5ccccc5-c5ccc(Cl)cc5)C4)ccc3C2=O)C(=O)N1 (stereo not shown) [GT-03923, 3-(5-((1-((4′-chloro-[1,1′-biphenyl]-2-yl)methyl)azetidin-3-yl)methyl)-1-oxoisoindolin-2-yl)piperidine-2,6-dione]

More lines, now with the values behind:

Structure (SMILES) | IC50 [nM]
CC1(C)CCC(C(=O)N2CC3CCC(C2)N3Cc2ccc3c(c2)CN(C2CCC(=O)NC2=O)C3=O)=C(c2ccc(Cl)cc2)C1 (stereo not shown) [GT-05522, 3-(5-((3-(4′-chloro-5,5-dimethyl-3,4,5,6-tetrahydro-[1,1′-biphenyl]-2-carbonyl)-3,8-diazabicyclo[3.2.1]octan-8-yl)methyl)-1-oxoisoindolin-2-yl)piperidine-2,6-dione] | 480
O=C1CCC(N2Cc3c(CN4C5CC4CN(C(=O)C4=C(c6ccc(F)cc6)CCCC4)C5)cccc3C2=O)C(=O)N1 (stereo not shown) [GT-05478, 3-(4-((3-(4′-fluoro-3,4,5,6-tetrahydro-[1,1′-biphenyl]-2-carbonyl)-3,6-diazabicyclo[3.1.1]heptan-6-yl)methyl)-1-oxoisoindolin-2-yl)piperidine-2,6-dione] | 1120
CC1(C)CCC(C(=O)N2C3CC2CN(C(=O)c2ccc4c(c2)CN(C2CCC(=O)NC2=O)C4=O)C3)=C(c2ccc(Cl)cc2)C1 (stereo not shown) [GT-05661, 3-(5-(6-(4′-chloro-5,5-dimethyl-3,4,5,6-tetrahydro-[1,1′-biphenyl]-2-carbonyl)-3,6-diazabicyclo[3.1.1]heptane-3-carbonyl)-1-oxoisoindolin-2-yl)piperidine-2,6-dione] | 960
CC1(C)CCC(CN2C3CCC2CN(Cc2ccc4c(c2)CN(C2CCC(=O)NC2=O)C4=O)C3)=C(c2ccc(F)cc2)C1 (stereo not shown) [GT-05510, 3-(5-((8-((4′-fluoro-5,5-dimethyl-3,4,5,6-tetrahydro-[1,1′-biphenyl]-2-yl)methyl)-3,8-diazabicyclo[3.2.1]octan-3-yl)methyl)-1-oxoisoindolin-2-yl)piperidine-2,6-dione] | 1220
CC1(C)CCC(CN2C3CCC2CN(c2ccc4c(c2)CN(C2CCC(=O)NC2=O)C4=O)C3)=C(c2ccc(F)cc2)C1 (stereo not shown) [GT-05500, 3-(5-(8-((4′-fluoro-5,5-dimethyl-3,4,5,6-tetrahydro-[1,1′-biphenyl]-2-yl)methyl)-3,8-diazabicyclo[3.2.1]octan-3-yl)-1-oxoisoindolin-2-yl)piperidine-2,6-dione] | 1870
CC1(C)CCC(CN2C3CC2CN(Cc2ccc4c(c2)CN(C2CCC(=O)NC2=O)C4=O)C3)=C(c2ccc(F)cc2)C1 (stereo not shown) [GT-05509, 3-(5-((6-((4′-fluoro-5,5-dimethyl-3,4,5,6-tetrahydro-[1,1′-biphenyl]-2-yl)methyl)-3,6-diazabicyclo[3.1.1]heptan-3-yl)methyl)-1-oxoisoindolin-2-yl)piperidine-2,6-dione] | 250
O=C1CCC(N2Cc3cc(NC4CN(Cc5ccccc5-c5ccc(Cl)cc5)C4)c(F)cc3C2=O)C(=O)N1 (stereo not shown) [GT-04204, 3-(5-((1-((4′-chloro-[1,1′-biphenyl]-2-yl)methyl)azetidin-3-yl)amino)-6-fluoro-1-oxoisoindolin-2-yl)piperidine-2,6-dione] | 520
O=C1CCC(N2Cc3cc(CN4CC5CC4CN5C(=O)c4ccccc4-c4ccc(Cl)cc4)ccc3C2=O)C(=O)N1 (stereo not shown) [GT-05776, 3-(5-((5-(4′-chloro-[1,1′-biphenyl]-2-carbonyl)-2,5-diazabicyclo[2.2.1]heptan-2-yl)methyl)-1-oxoisoindolin-2-yl)piperidine-2,6-dione] | 420
CC1(C)CCC(CN2CC3CCC(C2)N3Cc2ccc3c(c2)C(=O)N(C2CCC(=O)NC2=O)C3)=C(c2ccc(Cl)cc2)C1 (stereo not shown) [GT-05459, 3-(6-((3-((4′-chloro-5,5-dimethyl-3,4,5,6-tetrahydro-[1,1′-biphenyl]-2-yl)methyl)-3,8-diazabicyclo[3.2.1]octan-8-yl)methyl)-1-oxoisoindolin-2-yl)piperidine-2,6-dione] | 1120
CC1(C)CCC(C(=O)N2CC3CC(C2)N3Cc2ccc3c(c2)CN(C2CCC(=O)NC2=O)C3=O)=C(c2ccc(Cl)cc2)C1 (stereo not shown) [GT-05521, 3-(5-((3-(4′-chloro-5,5-dimethyl-3,4,5,6-tetrahydro-[1,1′-biphenyl]-2-carbonyl)-3,6-diazabicyclo[3.1.1]heptan-6-yl)methyl)-1-oxoisoindolin-2-yl)piperidine-2,6-dione] | 620
CC1(C)CCC(CN2C3CCC2CN(Cc2cc(F)c4c(c2)CN(C2CCC(=O)NC2=O)C4=O)C3)=C(c2ccc(Cl)cc2)C1 (stereo not shown) [GT-05536, 3-(5-((8-((4′-chloro-5,5-dimethyl-3,4,5,6-tetrahydro-[1,1′-biphenyl]-2-yl)methyl)-3,8-diazabicyclo[3.2.1]octan-3-yl)methyl)-7-fluoro-1-oxoisoindolin-2-yl)piperidine-2,6-dione] | 1050
